{"source": "patent US20200165312A1", "about": "“COSMETIC COMPOSITION FOR IMPROVING SKIN CONDITIONS COMPRISING FUSION PROTEIN INCLUDING SKIN PENETRATION ENHANCING PEPTIDE” (LG HOUSEHOLD & HEALTH CARE LTD., priority 2017, published 2020)", "key": {"[1]": {"settings": "amount present in the porcine skin by HPLC, relative to control peptide"}, "[2]": {"settings": "2 μg in donor chamber, 16 hours, amount in receiver chamber relative to control peptide"}, "C2C12 cells": {"system": "C2C12 cells", "experiment": "Inhibition of muscle contraction: contractions of C2C12 cells co-cultured with neuroblasts", "format": "cell-based", "settings": "50 ppm, 2 hours, medium without FBS, counted for 30 seconds; FIG. 1", "procedure": "Then, the number of contractions of the C2C12 cells was measured for 30 second at the initial stage of cell contraction and all of the medium was removed, followed by washing three times with PBS. The cells were reacted for 2 hours in a medium supplemented with 50 ppm of the fusion peptide without the FBS. Then, the number of contractions of the C2C12 cells was measured for 30 seconds to identify the degree of inhibiting muscle contraction."}, "dermal fibroblasts": {"system": "dermal fibroblasts", "experiment": "Hyaluronic acid (HA) production in dermal fibroblasts (ELISA)", "format": "cell-based, human", "settings": "10 ng/mL T-VEGF or VEGF, two days; control = 100", "procedure": "(§1) Specifically, dermal fibroblasts were inoculated onto a 24-well plate and cultured for 24 hours to obtain cultures having a saturation degree of 70 to 80%. The cultures were washed with PBS and cultured in a serum-free DMEM medium including 10 ng/mL T-PDGFa or PDGFa for two days. A supernatant was obtained therefrom and the amount of hyaluronic acid (HA) produced and released in the culture solution was quantitively analyzed using an ELISA kit (R&D Systems) (Table 5).\nas §1, with “The cultures were washed with PBS and cultured in a serum-free DMEM medium including 10 ng/mL T-PDGFa or PDGFa for two days.” left out, “9).” for “5).”"}, "[3]": {"system": "human umbilical vein endothelial cells", "experiment": "Endothelial cell proliferation, Cell Counter Kit-8", "format": "cell-based", "settings": "100 ng/mL T-VEGF or VEGF, serum-free M199, one day; control = 100", "procedure": "Specifically, human umbilical vein endothelial cells were inoculated onto a 96-well plate and cultured for 24 hours to obtain cultures at a density of 5,000 cells per well. The cultures were washed with PBS and cultured in a serum-free M199 medium for 16 hours. […] The cultures were obtained therefrom and a difference between proliferated amounts of cells was quantitively analyzed using the Cell Counter Kit-8 (Dojindo).\nSpecifically, human umbilical vein endothelial cells were inoculated onto a 96-well plate and cultured for 24 hours to obtain cultures at a density of 5,000 cells per well. The cultures were washed with PBS and cultured in a serum-free M199 medium for 16 hours. The cells were washed with PBS again and cultured in a serum-free M199 medium supplemented with 100 ng/mL T-Tβ4 or Tβ4 for one day. The cultures were obtained therefrom and a difference between proliferated amounts of cells was quantitively analyzed using the Cell Counter Kit-8 (Dojindo). Here, human umbilical vein endothelial cells cultured in a serum-free M199 medium without T-Tβ4 or Tβ4 were used as a control (Table 22)."}, "dermal papilla cells": {"system": "dermal papilla cells", "experiment": "Hair follicle stem cell proliferation: dermal papilla cells, Cell Counter Kit-8", "format": "cell-based", "settings": "1 ng/mL T-VEGF or VEGF, one day; control = 100", "procedure": "(§2) Specifically, dermal papilla cells were inoculated onto a 96-well plate and cultured for 24 hours to obtain cultures at a density of 6,000 cells per well. The cultures were washed with PBS and cultured in a serum-free DMEM medium for one day. The cells were washed with PBS again and cultured in a serum-free DMEM medium supplemented with 1 ng/mL T-PDGFa or PDGFa for one day. The cultures were obtained therefrom and a difference between proliferated amounts of cells was quantitively analyzed using the Cell Counter Kit-8 (Dojindo). Here, dermal papilla cells cultured in a serum-free DMEM medium without T-PDGFa or PDGFa were used as a control (Table 6).\nSpecifically, dermal papilla cells were inoculated onto a 96-well plate and cultured for 24 hours to obtain cultures at a density of 6,000 cells per well. The cultures were washed with PBS and cultured in a serum-free DMEM medium for one day. […] The cultures were obtained therefrom and a difference between proliferated amounts of cells was quantitively analyzed using the Cell Counter Kit-8 (Dojindo).\nas §2, with “T-IGF-1” for “T-PDGFa”, “IGF-1” for “PDGFa”, “15).” for “6).”\nas §2, with “10” for “1”, “T-KGF” for “T-PDGFa”, “KGF” for “PDGFa”, “19).” for “6).”\nas §2, with “10” for “1”, “T-Tβ4” for “T-PDGFa”, “Tβ4” for “PDGFa”, “23).” for “6).”"}}, "note": "Where a SMILES comes first, the peptide text is derived from it. Where no end group is shown, it is not given here. The star is where a group is joined. Palmitoyl = CCCCCCCCCCCCCCCC(=O)*"}
{"compound": "CCCCCCCCCCCCCCCC(=O)N[C@@H](Cc1ccc(O)cc1)C(=O)N1CCC[C@H]1C(=O)N[C@@H](Cc1c[nH]c2ccccc12)C(=O)N[C@H](C(=O)N[C@@H](CCC(N)=O)C(=O)N[C@@H](CCCNC(=N)N)C(=O)N[C@@H](Cc1ccccc1)C(=O)N[C@@H](CC(N)=O)C(=O)NCC(=O)N[C@@H](CO)C(=O)N[C@@H](CC(C)C)C(=O)N[C@@H](CC(N)=O)C(=O)N[C@H](C(=O)N[C@@H](Cc1c[nH]cn1)C(=O)N[C@@H](CC(C)C)C(=O)N[C@@H](C)C(=O)N1CCC[C@H]1C(=O)N[C@H](C(=O)N[C@@H](CC(C)C)C(=O)O)[C@@H](C)CC)[C@@H](C)O)[C@@H](C)O", "note": "[Fusion protein including [Pal]YPWTQRF] (Palmitoyl-YPWTQRFNGSLNTHLAPIL-OH)", "values": [{"measurement": "Relative penetration (%)", "setting": "[1]", "value": "6290 ± 1350", "unit": "%"}, {"measurement": "Penetration enhancement (%)", "setting": "[2]", "value": "280 ± 15", "unit": "%"}]}
{"compound": "Acetyl-Glu-Glu-Met-Gln-Arg-Arg (Ac-EEMQRR) [Argireline ™, neurotransmitter release regulating peptide used as control peptide]", "values": [{"measurement": "number of contractions of the C2C12 cells", "setting": "C2C12 cells", "value": "reduced"}]}
{"compound": "VEGF", "values": [{"measurement": "Production (%) of hyaluronic acid (HA)", "setting": "dermal fibroblasts", "value": "220 ± 20", "unit": "%"}, {"measurement": "Proliferation (%)", "setting": "[3]", "value": "170 ± 10", "unit": "%"}, {"measurement": "Proliferation (%)", "setting": "dermal papilla cells", "value": "340 ± 50", "unit": "%"}]}
